Test results from PubChem BioAssay (NCI).
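Growth conditions: 96-well plates. Treatment: test compound, 48 hours, 5 concentrations. Analysis: linear interpolation between bracketing concentrations; unreached endpoints set to highest concentration. GI50 marks 50% less growth. The concentration for full growth arrest is given as TGI.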

Key:
Assay in all cases: growth of human tumour cells (NCI), 48 h
[1] = system: NCI-H23 lung
[2] = system: U251 CNS
[3] = system: 786-0 renal
[4] = system: HCC-2998 colon
[5] = system: TK-10 renal
[6] = system: EKVX NSCLC
[7] = system: OVCAR-4 ovarian
[8] = system: T-47D breast
[9] = system: PC-3 prostate
[10] = system: NCI-H522 lung
[11] = system: HCT-116 colon
[12] = system: A549 NSCLC
[13] = system: SK-MEL-28 melanoma
[14] = system: HCT-15 colon
[15] = system: M14 melanoma
[16] = system: MDA-MB-435
[17] = system: CAKI-1 renal
[18] = system: SF-295 CNS
[19] = system: UO-31 renal
[20] = system: LOX IMVI melanoma
[21] = system: RPMI-8226 leukemia
[22] = system: KM12 colon
[23] = system: K-562 leukemia
[24] = system: SNB-19 CNS
[25] = system: MOLT-4 leukemia
[26] = system: UACC-62 melanoma
[27] = system: HOP-92 NSCLC
[28] = system: CCRF-CEM leukemia
[29] = system: SK-OV-3 ovarian
[30] = system: SK-MEL-2 melanoma
[31] = system: SK-MEL-5 melanoma
[32] = system: HOP-62 NSCLC
[33] = system: MDA-MB-231 breast
[34] = system: OVCAR-8 ovarian
[35] = system: ACHN renal
[36] = system: NCI/ADR-RES ovarian
[37] = system: HT29 colon
[38] = system: MCF7 breast
[39] = system: SF-268 CNS
[40] = system: SN12C renal
[41] = system: BT-549 breast
[42] = system: NCI-H460 lung
[43] = system: SW-620 colon
[44] = system: SNB-75 CNS
[45] = system: SF-539 CNS
[46] = system: OVCAR-3 ovarian
[47] = system: DU-145 prostate

## [N-]=[N+]=NCCCn1c2c(c3cc4c(cc3c1=O)OCO4)C(=O)c1ccccc1-2
[1]
  GI50: 42.8 µM
  TGI: > 100 µM
[2]
  GI50: > 100 µM
  TGI: > 100 µM
[3]
  GI50: 67.7 µM
  TGI: > 100 µM
[4]
  GI50: > 100 µM
  TGI: > 100 µM
[5]
  GI50: 42.6 µM
  TGI: > 100 µM
[6]
  GI50: > 100 µM
  TGI: > 100 µM
[7]
  GI50: > 100 µM
  TGI: > 100 µM
[8]
  GI50: > 100 µM
  TGI: > 100 µM
[9]
  GI50: > 100 µM
  TGI: > 100 µM
[10]
  GI50: 75 µM
  TGI: > 100 µM
[11]
  GI50: 40.1 µM
  TGI: > 100 µM
[12]
  GI50: 93.5 µM
  TGI: > 100 µM
[13]
  GI50: > 100 µM
  TGI: > 100 µM
[14]
  GI50: > 100 µM
  TGI: > 100 µM
[15]
  GI50: 43 µM
  TGI: > 100 µM
[16]
  GI50: 10.3 µM
  TGI: > 100 µM
[17]
  GI50: 89.1 µM
  TGI: > 100 µM
[18]
  GI50: 32.4 µM
  TGI: > 100 µM
[19]
  GI50: > 100 µM
  TGI: > 100 µM
[20]
  GI50: 13.5 µM
  TGI: > 100 µM
[21]
  GI50: > 100 µM
  TGI: > 100 µM
[22]
  GI50: > 100 µM
  TGI: > 100 µM
[23]
  GI50: 28.7 µM
  TGI: > 100 µM
[24]
  GI50: > 100 µM
  TGI: > 100 µM
[25]
  GI50: 0.0905 µM
  TGI: 13.7 µM
[26]
  GI50: 87.3 µM
  TGI: > 100 µM
[27]
  GI50: 64.2 µM
  TGI: > 100 µM
[28]
  GI50: 39.2 µM
  TGI: > 100 µM
[29]
  GI50: > 100 µM
  TGI: > 100 µM
[30]
  GI50: 91.1 µM
  TGI: > 100 µM
[31]
  GI50: 3.52 µM
  TGI: 31.3 µM
[32]
  GI50: 39 µM
  TGI: > 100 µM
[33]
  GI50: > 100 µM
  TGI: > 100 µM
[34]
  GI50: 21.6 µM
  TGI: 87.3 µM
[35]
  GI50: 13.1 µM
  TGI: 86 µM
[36]
  GI50: > 100 µM
  TGI: > 100 µM
[37]
  GI50: > 100 µM
  TGI: > 100 µM
[38]
  GI50: 7.5 µM
  TGI: > 100 µM
[39]
  GI50: > 100 µM
  TGI: > 100 µM
[40]
  GI50: > 100 µM
  TGI: > 100 µM
[41]
  GI50: > 100 µM
  TGI: > 100 µM
[42]
  GI50: 62.8 µM
  TGI: > 100 µM
[43]
  GI50: > 100 µM
  TGI: > 100 µM
[44]
  GI50: 72.8 µM
  TGI: > 100 µM
[45]
  GI50: > 100 µM
  TGI: > 100 µM
[46]
  GI50: 71.9 µM
  TGI: > 100 µM
[47]
  GI50: 17.5 µM
  TGI: > 100 µM
